Experimental data: US9060515B2, “Heterocyclic urea compounds” (BIOTA EUROPE LTD, priority 2011, dated 2015)
Converted amounts (≈) assume the structure as drawn.

Legend:
Type in all cases: cell-based
S. aureus (ATCC 29213) = experiment: Antibacterial susceptibility testing (MIC, broth microdilution or agar dilution), S. aureus; settings: Staphylococcus aureus, ATCC29213; read-out: S. aureus (ATCC 29213) minimal inhibitory concentration (MIC)
In short: (§1)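 MICs by CLSI (M7-A7) broth microdilution or agar dilution, against reference ATCC strains as listed.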

S. pyogenes (ATCC 51339) = experiment: Antibacterial susceptibility testing (MIC, broth microdilution or agar dilution), S. pyogenes; settings: Streptococcus pyogenes, ATCC51339; read-out: S. pyogenes (ATCC 51339) minimal inhibitory concentration (MIC)
In short: as §1

[1] = tested on: H. influenzae (ATCC 49247); experiment: Antibacterial susceptibility testing (MIC, broth microdilution or agar dilution), H. influenzae; settings: Haemophilus influenzae, ATCC49247; read-out: H. influenzae (ATCC 49247) minimal inhibitory concentration (MIC)
Experimental: Compounds of the invention were tested for antimicrobial activity by susceptibility testing in liquid or on solid media. MICs for compounds against each strain were determined by the broth microdilution or agar dilution method according to the guidelines of the Clinical Laboratories and Standards Institute, formerly the National Committee for Clinical Laboratory Standards (Clinical Laboratories and Standards Institute. Methods for Dilution Antimicrobial Susceptibility Tests for Bacteria That Grow Aerobically; Approved Standard—Seventh Edition. Document M7-A7. CLSI, Wayne, Pa., 2006; Clinical Laboratories and Standards Institute. The Gram positive bacterial strains tested include S. aureus (Staphylococcus aureus (Isolate ID ATCC 29213)), E. faecalis (Enterococcus faecalis (Isolate ID ATCC 29212)) and S. pyogenes (Streptococcus pyogenes (Isolate ID ATCC 51339)). The Gram negative bacterial strains tested include H. influenzae (Haemophilus influenzae (Isolate ID ATCC 49247)).

Structure (SMILES)	MIC (S. aureus (ATCC 29213))	MIC (S. pyogenes (ATCC 51339))	MIC [1]
CCNC(=O)Nc1cc(Nc2ccccc2)c(C(=O)Nc2ccc(C(=O)OC)cc2)cn1 [Compound 67, methyl 4-(6-(3-ethylureido)-4-(phenylamino)nicotinamido)benzoate]	≤ 1 µg/mL	≤ 1 µg/mL	4 µg/mL (≈ 9.23 µM)
CCNC(=O)Nc1cc(Nc2ccccc2)c(C(=O)Nc2ccc(C(=O)O)cc2)cn1 [Compound 68, 4-(6-(3-ethylureido)-4-(phenylamino)nicotinamido)benzoic acid]	8 µg/mL (≈ 19.1 µM)	≤ 1 µg/mL	4 µg/mL (≈ 9.54 µM)
CCNC(=O)Nc1cc(Nc2ccc(F)cc2)c(C(=O)Nc2ccc(CC(C)(C)C(=O)O)cc2)cn1 [Compound 175, 3-{4-[({6-[(ethylcarbamoyl)amino]-4-[(4-fluorophenyl)amino]pyridin-3-yl}carbonyl)amino]phenyl}-2,2-dimethylpropanoic acid]	≤ 1 µg/mL	–	4 µg/mL (≈ 8.1 µM)
CCNC(=O)Nc1cc(Nc2ccc(C(F)(F)F)cc2)c(C(=O)Nc2ccc(CCC(=O)O)cc2)cn1 [Compound 176, 3-[4-[[6-(ethylcarbamoylamino)-4-[4-(trifluoromethyl)anilino]pyridine-3-carbonyl]amino]phenyl]propanoic acid]	≤ 1 µg/mL	–	4 µg/mL (≈ 7.76 µM)
CCNC(=O)Nc1cc(Nc2cccc(Cl)c2)c(C(=O)Nc2ccc(CC(C)(C)C(=O)O)cc2)cn1 [Compound 177, 3-{4-[({4-[(3-chlorophenyl)amino]-6-[(ethylcarbamoyl)amino]pyridin-3-yl}carbonyl)amino]phenyl}-2,2-dimethylpropanoic acid]	≤ 1 µg/mL	–	4 µg/mL (≈ 7.84 µM)
CCNC(=O)Nc1cc(Nc2cccc(OC)c2)c(C(=O)Nc2ccc(CC(C)(C)C(=O)O)cc2)cn1 [Compound 178, 3-{4-[({6-[(ethylcarbamoyl)amino]-4-[(3-methoxyphenyl)amino]pyridin-3-yl}carbonyl)amino]phenyl}-2,2-dimethylpropanoic acid]	≤ 1 µg/mL	–	4 µg/mL (≈ 7.91 µM)
CCNC(=O)Nc1cc(Nc2ccccc2)c(C(=O)Nc2ccc(CCC(=O)OC)nc2)cn1 [Compound 179, methyl 3-{5-[({6-[(ethylcarbamoyl)amino]-4-(phenylamino)pyridin-3-yl}carbonyl)amino]pyridin-2-yl}propanoate]	≤ 1 µg/mL	–	8 µg/mL (≈ 17.3 µM)
CCNC(=O)Nc1cc(Nc2ccccc2F)c(C(=O)Nc2ccc(CC(C)(C)C(=O)O)cc2)cn1 [Compound 182, 3-{4-[({6-[(ethylcarbamoyl)amino]-4-[(2-fluorophenyl)amino]pyridin-3-yl}carbonyl)amino]phenyl}-2,2-dimethylpropanoic acid]	≤ 1 µg/mL	–	4 µg/mL (≈ 8.1 µM)
CCNC(=O)Nc1cc(Nc2ccccc2Cl)c(C(=O)Nc2ccc(CC(C)(C)C(=O)O)cc2)cn1 [Compound 183, 3-{4-[({4-[(2-chlorophenyl)amino]-6-[(ethylcarbamoyl)amino]pyridin-3-yl}carbonyl)amino]phenyl}-2,2-dimethylpropanoic acid]	≤ 1 µg/mL	–	4 µg/mL (≈ 7.84 µM)
CCNC(=O)Nc1cc(Nc2ccc(F)c(OC)c2)c(C(=O)Nc2ccc(CC(C)(C)C(=O)O)cc2)cn1 [Compound 184, 3-{4-[({6-[(ethylcarbamoyl)amino]-4-[(4-fluoro-3-methoxyphenyl)amino]pyridin-3-yl}carbonyl)amino]phenyl}-2,2-dimethylpropanoic acid]	≤ 1 µg/mL	–	4 µg/mL (≈ 7.64 µM)
CCNC(=O)Nc1cc(Nc2ccc(OC)c(F)c2)c(C(=O)Nc2ccc(CC(C)(C)C(=O)O)cc2)cn1 [Compound 190, 3-{4-[({6-[(ethylcarbamoyl)amino]-4-[(3-fluoro-4-methoxyphenyl)amino]pyridin-3-yl}carbonyl)amino]phenyl}-2,2-dimethylpropanoic acid]	≤ 1 µg/mL	–	2 µg/mL (≈ 3.82 µM)
CCNC(=O)Nc1cc(Nc2ccc(Cl)cc2)c(C(=O)Nc2ccc([C@@H]3C[C@H]3C(=O)O)cc2)cn1 [Compound 192, (1R,2R)-2-{4-[({4-[(4-chlorophenyl)amino]-6-[(ethylcarbamoyl)amino]pyridin-3-yl}carbonyl)amino]phenyl}cyclopropanecarboxylic acid]	≤ 1 µg/mL	–	2 µg/mL (≈ 4.05 µM)
